How the values were obtained:
[1] = test system: RAW264.7 macrophages; experiment: Macrophage proliferation (CCK-8 viability of LPS-stimulated RAW264.7 cells); type: cell-based
Method: (§1) RAW264.7 macrophages were purchased from the National Collection of Authenticated Cell Cultures (Shanghai, China). The cell culture medium was supplemented with 10% fetal bovine serum and 100 U/mL penicillin and 100 μg/mL streptomycin in DMEM culture medium.
The viability of RAW264.7 cells was measured by Cell Counting Kit (CCK-8). Briefly, RAW264.7 cells were plated into 96-well plates at a density of 5×10^4 cells/well and incubated at 37 °C, 5% CO2 for 24 hours. Next the cells were exposed to 1 μg/mL lipopolysaccharides (LPS) for 24 hours to induce an inflammatory response by the RAW264.7 cells. Subsequently, the cells were exposed to different combinations of test ingredients for 24 hours. For the control, the cells were stimulated with LPS for 24 hours, followed by 24 hours with medium only. […] The absorbance was recorded on an automatic microplate reader with an […] of 450 nm. The higher the measured value, the higher the number of viable cells.
The macrophage proliferation is expressed as a percentage compared to the control (LPS only) which was set to 100%. […]
For this evaluation, the concentration at which each test ingredient provided an equivalent effect on macrophage proliferation was determined.
A combination of two compounds was considered as having synergy if both values, as calculated according to formulas 1a and 1b below, were higher than 1. […]

[2] = test system: RAW264.7 macrophages; experiment: ROS production (DCFH-DA probe in LPS-stimulated RAW264.7 cells); type: cell-based; settings: Mus musculus, 10 μg/mL, relative to control (LPS only) set to 100%
Method: as §1
The accumulation of ROS was assessed by the radical probe DCFH-DA. At the beginning, RAW264.7 cells were seeded in 6-well plate at 1×10^6 cells/well for 24 hours followed by a 24 hour exposure to LPS to induce an inflammatory response by the RAW264.7 cells. Subsequently, the cells were exposed to different combinations of test ingredients. For the control, the cells were stimulated with LPS for 24 hours, followed by 24 hour with medium only. All experiments were performed in triplicate. […] After incubation at 37 °C for 20 minutes in the dark, the cells were washed and lysed to release intracellular DCF and the fluorescence intensity was detected at 488 nm excitation and 525 nm emission using a microplate spectrofluorometer. The higher the measured value, the higher the level of ROS.
A combination of two compounds was considered as having synergy if both values, as calculated according to formulas 1a and 1b below, were higher than 1. […] If a combination of three compounds were to be evaluated, a similar logic is applied, but the assessed concentration in the combination is divided by 3 and three comparisons are made. […]

SMILES: O=C(O)c1cc(C(=O)O)c2c(n1)C(=O)C(=O)c1cc(C(=O)O)[nH]c1-2 [PQQ, Pyrroloquinoline quinone]
- activity at 10 µg/mL ([1]; Mus musculus, RAW264.7, 24 h, Example 2, 10 μg/mL, relative to control (LPS only) set to 100%): 142 ± 14.1%
- Concentration that provided an equivalent effect on macrophage proliferation ([1]; Table 4, LPS-stimulated RAW264.7 cells): 10 µg/mL
- activity at 10 µg/mL [2]: 62.8 ± 5.3%

From US20260345585A1, “DIETARY SUPPLEMENT COMPRISING A PREBIOTIC AND ANTIOXIDANT” (N.V. Nutricia, priority 2023, published 2026)
